From ChEMBL document CHEMBL1134228, “Structure-activity analysis of truncated orexin-A analogues at the orexin-1 receptor” (Bioorg Med Chem Lett, 2001)
Active and inactive are the calls of the source. The rule behind the calls is not given here.

Tested on: not listed separately
Assay: Functional potency was determined by concentration required for activation of OX1 (Orexin-1) receptor expressed in chinese hamster ovary cells (CHO) and increasing the intracellular calcium concentration
Assay type: cell-based
Conditions: Cricetulus griseus

| Molecule | EC50 [nM] |
| --- | --- |
| CC[C@H](C)[C@H](NC(=O)CNC(=O)[C@H](C)NC(=O)[C@H](C)NC(=O)[C@H](Cc1cnc[nH]1)NC(=O)[C@H](CC(N)=O)NC(=O)CNC(=O)[C@H](C)NC(=O)CNC(=O)[C@H](Cc1cnc[nH]1)NC(=O)[C@H](CC(C)C)NC(=O)[C@H](CC(C)C)NC(=O)[C@H](CCC(=O)O)NC(=O)[C@H](Cc1ccc(O)cc1)NC(=O)[C@H](CC(C)C)NC(=O)[C@@H](N)CCCNC(=N)N)C(=O)N[C@@H](CC(C)C)C(=O)N[C@H](C(=O)N[C@@H](CC(C)C)C(N)=O)[C@@H](C)O | 355 |
| H-ALYELLHGAGNHAAGILTL-NH2 | 347 |
| H-RLAELLHGAGNHAAGILTL-NH2 | 776 |
| H-RLYALLHGAGNHAAGILTL-NH2 | 195 |
| H-RLYELLAGAGNHAAGILTL-NH2 | 1290 |
| H-RLYELLHAAGNHAAGILTL-NH2 | 646 |
| H-RLYELLHGAANHAAGILTL-NH2 | 832 |

Biological target: T1, Orexin/Hypocretin receptor type 1 (Homo sapiens, UniProt O43613)
T1 sequence (O43613 whole entry): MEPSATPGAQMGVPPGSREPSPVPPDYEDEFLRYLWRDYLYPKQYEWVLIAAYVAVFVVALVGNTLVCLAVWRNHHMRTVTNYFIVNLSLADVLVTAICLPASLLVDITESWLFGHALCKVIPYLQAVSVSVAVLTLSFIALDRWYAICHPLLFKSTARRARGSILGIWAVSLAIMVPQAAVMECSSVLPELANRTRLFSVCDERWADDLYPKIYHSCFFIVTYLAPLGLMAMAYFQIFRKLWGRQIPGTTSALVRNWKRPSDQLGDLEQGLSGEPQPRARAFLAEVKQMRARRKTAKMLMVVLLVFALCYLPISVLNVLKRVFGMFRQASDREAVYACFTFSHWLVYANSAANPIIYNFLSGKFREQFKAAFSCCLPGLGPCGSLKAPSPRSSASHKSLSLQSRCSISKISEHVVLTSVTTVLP
Assay: Binding affinity to Orexin receptor type 1 was determined using laser scanning cytometry
Conditions: not given

| Molecule | Ki [nM] |
| --- | --- |
| CC[C@H](C)[C@H](NC(=O)CNC(=O)[C@H](C)NC(=O)[C@H](C)NC(=O)[C@H](Cc1cnc[nH]1)NC(=O)[C@H](CC(N)=O)NC(=O)CNC(=O)[C@H](C)NC(=O)CNC(=O)[C@H](Cc1cnc[nH]1)NC(=O)[C@H](CC(C)C)NC(=O)[C@H](CC(C)C)NC(=O)[C@H](CCC(=O)O)NC(=O)[C@H](Cc1ccc(O)cc1)NC(=O)[C@H](CC(C)C)NC(=O)[C@@H](N)CCCNC(=N)N)C(=O)N[C@@H](CC(C)C)C(=O)N[C@H](C(=O)N[C@@H](CC(C)C)C(N)=O)[C@@H](C)O | 269 |
| H-ELLHGAGNHAAGILTL-NH2 | 66100 |

Tested on: CHO
Assay: Percentage response for agonist like activity at 10 uM, relative to maximal orexin-A induced response in CHO cells was determined
Assay type: functional, Cricetulus griseus
Conditions: not given

| Molecule | Activity [%] |
| --- | --- |
| CC[C@H](C)[C@H](NC(=O)[C@@H](C)NC(=O)[C@H](C)NC(=O)[C@H](C)NC(=O)[C@H](Cc1c[nH]cn1)NC(=O)[C@H](CC(N)=O)NC(=O)CNC(=O)[C@H](C)NC(=O)CNC(=O)[C@H](Cc1c[nH]cn1)NC(=O)[C@H](CC(C)C)NC(=O)[C@H](CC(C)C)NC(=O)[C@H](CCC(=O)O)NC(=O)[C@H](Cc1ccc(O)cc1)NC(=O)[C@H](CC(C)C)NC(=O)[C@@H](N)CCCN=C(N)N)C(=O)N[C@@H](CC(C)C)C(=O)N[C@H](C(=O)N[C@@H](CC(C)C)C(N)=O)[C@@H](C)O | 15 |
| H-ELLHGAGNHAAGILTL-NH2 | 13 |
| H-LLHGAGNHAAGILTL-NH2 | 16 |
| H-RAYELLHGAGNHAAGILTL-NH2 | 71 |
| H-RLYEALHGAGNHAAGILTL-NH2 | 60 |
| H-RLYELAHGAGNHAAGILTL-NH2 | 37 |
| H-RLYELLHGAGNAAAGILTL-NH2 | 61 |
| H-RLYELLHGAGNHAAGIATL-NH2 | 12 |
| H-RLYELLHGAGNHAAGILAL-NH2 | 39 |
| H-RLYELLHGAGNHAAGILTA-NH2 | 15 |
| H-YELLHGAGNHAAGILTL-NH2 | 40 |

Tested on: CHO
Assay: Percentage response for agonist like activity at 10 uM, relative to maximal orexin-A induced response in CHO cells was determined; Inactive
Assay type: functional, cell-based
Conditions: Cricetulus griseus

| Molecule | Activity |
| --- | --- |
| CC[C@H](C)[C@H](NC(=O)CNC(=O)[C@H](C)NC(=O)[C@H](C)NC(=O)[C@H](Cc1c[nH]cn1)NC(=O)[C@H](CC(N)=O)NC(=O)CNC(=O)[C@H](C)NC(=O)CNC(=O)[C@H](Cc1c[nH]cn1)NC(=O)[C@H](CC(C)C)NC(=O)[C@H](CC(C)C)NC(=O)[C@H](CCC(=O)O)NC(=O)[C@H](Cc1ccc(O)cc1)NC(=O)[C@H](CC(C)C)NC(=O)[C@@H](N)CCCN=C(N)N)C(=O)N[C@@H](CC(C)C)C(=O)N[C@@H](C(=O)N[C@@H](CC(C)C)C(N)=O)[C@@H](C)O | inactive |
| H-GILTL-NH2 | inactive |

Biological target: T2, Orexin/Hypocretin receptor type 1 (Homo sapiens) (UniProt O43613)
T2 sequence (whole entry): T1 sequence (O43613 whole entry)
Assay: Compound was tested for antagonist activity expressed as percentage response at 10 uM, relative to maximal orexin-A induced response against OX1 receptor; IA is Inactive
Assay type: functional
Conditions: not given

| Molecule | Activity |
| --- | --- |
| H-GNHAAGILTL-NH2 | inactive |

Tested on: CHO
Assay: Percentage response at 10 uM, relative to maximal orexin-A induced response; Inactive
Assay type: functional, cell-based
Conditions: Cricetulus griseus

| Molecule | Activity |
| --- | --- |
| H-RLYELLHGAGNHAAGALTL-NH2 | inactive |
